Patent US10328085B2, “Cobalt porphyrins for the treatment of blood-related disorders” (UNIWERSYTET JAGIELLONSKI, priority 2014, dated 2019)

Experiments:
C3H and C57BL6xFVB mice [1] = test: flow cytometry of peripheral blood granulocytes in mice; format: in vivo
Source text: FIG. 3—the percentage of granulocytes in peripheral blood in C3H mice after administration of the test compounds; (test ANOVA+Bonferroni test),
FIG. 4—the percentage of granulocytes in the peripheral blood of C57BL6xFVB mice after administration of CoPP; (test ANOVA+Bonferroni test),
CoPP is used in scientific experiments, both in vitro and in vivo as heme oxygenase-1 inducer. […] In some of the experiments tin protoporphyrin IX (SnPP), which is an inhibitor of the enzymatic activity of HO-1, was also used.
(§1) CoPP was administered to mice intraperitoneally at a dose of 10 mg/kg of body weight, three times at intervals of two days. Control mice received only the solvent (DMSO). In one experiment tin protoporphyrin (SnPP) was also used.
The day after the last administration of CoPP the mice were sacrificed and samples were collected for analysis. Complete blood counts were obtained using a hematology analyzer. In addition, the phenotype and the quantity of leukocytes in the peripheral blood, bone marrow and spleen was analyzed in more detail using a flow cytometer. Moreover, concentrations of 32 cytokines and growth factors in plasma were analyzed. The results of analyzes indicate that mice that were treated with CoPP had increased number of white blood cells (WBC) in the blood compared to mice that received only DMSO (3-fold in C3H mice, 2-fold in C57BL6xFVB mice). […]

C3H and C57BL6xFVB mice [2] = test: complete blood counts (hematology analyzer) in mice after CoPP; format: in vivo; details: for increase in number of granulocytes / increase in number of white blood cells (WBC) in blood compared to DMSO: three times at intervals of two days
Source text: The possibility of using CoPP for cell mobilization has been confirmed in experiments conducted on two different strains of mice: C3H (5 mice per group) and C57BL6xFVB (5-6 mice per group). The figures show:
FIG. 1—peripheral blood cell counts in C3H mice after administration of the test compounds (HCT—hematocrit, RBC—erythrocytes, WBC—leukocytes, LYM—lymphocytes, MON—monocytes, GRA—granulocytes, #—number of cells per mm^3, %—percentage of the population among all leukocytes; (ANOVA+Bonferroni test)
FIG. 2—peripheral blood cell counts in C57BL6xFVB strain after administration of CoPP; (test ANOVA+Bonferroni test)
as §1
(§2) The day after the last administration of CoPP the mice were sacrificed and samples were collected for analysis. Complete blood counts were obtained using a hematology analyzer. In addition, the phenotype and the quantity of leukocytes in the peripheral blood, bone marrow and spleen was analyzed in more detail using a flow cytometer. Moreover, concentrations of 32 cytokines and growth factors in plasma were analyzed. The results of analyzes indicate that mice that were treated with CoPP had increased number of white blood cells (WBC) in the blood compared to mice that received only DMSO (3-fold in C3H mice, 2-fold in C57BL6xFVB mice). In both strains, there was a significant increase in the number of granulocytes (6.7-fold in C3H mice, 4-fold in C57BL6xFVB mice). There were no changes in the parameters such as hematocrit (HCT) and the number of erythrocytes (RBC) (FIG. 1, FIG. 2)

[3] = singlet oxygen generation by flash photolysis; format: physicochemical; details: laser light at 355 nm
Experimental: FIG. 7—singlet oxygen generation quantum yield (ΦΔ) for CoPP and SnPP in reference to phenalenone, measured by flash photolysis.
Because of the fact that potential described side effects of administration of porphyrins are associated with photosensitization, causing the formation of toxic reactive oxygen species, it was evaluated if CoPP is a photosensitizer and thus may cause side effects. To this end, the ability to generate reactive oxygen species by CoPP was verified by flash photolysis. […] In contrast, in experiment with another porphyrin (SnPP) 89% of absorbed energy was used for generation of singlet oxygen (FIG. 7). It is therefore unlikely that CoPP will cause photosensitization, what often limits the clinical application of other compounds from the group of porphyrins.

solubility = format: physicochemical; details: alkaline aqueous solutions
Source text: Cobalt porphyrins can be prepared by known methods. For example, cobalt protoporphyrin IX can be prepared using methods as described in: “Porphyrins and Metalloporphyrins” Ed. by K. M. Smith, Elsevier Scientific Pub. Co (1975) ISBN 0-444-41375-8 oraz Kenner, G. W., et al., Liebigs Ann. Chem. 1973, 1329-1338 and Burns, D. H., et al., J. Chem. Soc., Perkin Trans. 1, 1988, 3119. […] In the production process and the preparation of a medical agent cobalt protoporphyrin is proposed to be dissolved in an alkaline solution (eg. 0.2 M Na3PO4.12H20; ˜0.2 ml/ml final volume) and then with sterile water (˜0.7 ml/ml final volume), pH adjusted to 7.5-7.8 (eg. 0.3N HCl).

[4] = test system: cytokines and growth factors in plasma; test: cytokines and growth factors in plasma (Luminex); format: in vivo, mice
Experimental: FIG. 5—concentration of cytokines and growth factors in plasma of C3H mice after administration of test compounds; (test ANOVA+Bonferroni test),
FIG. 6—concentration of cytokines and growth factors in plasma of C57BL6xFVB mice after administration of CoPP; (test ANOVA+Bonferroni test),
as §1, §2
In order to investigate the mechanism responsible for the increase of the leukocytes (especially granulocytes) number, after administration of CoPP, the concentrations of cytokines and growth factors in the plasma were measured using the Luminex system. An increase in levels of granulocyte colony stimulating factor (G-CSF), chemokines MCP-1 (CCL2) and IP-10 (CXCL-10) and interleukin 6 was observed (FIG. 5, FIG. 6).

C57BL6xFVB mice = test: HSPC mobilization to blood, CoPP compared with G-CSF; format: in vivo; details: CoPP 10 mg/kg (15 μmol/kg) vs rhG-CSF 250 μg/kg, i.p. daily for five days
Experimental: FIG. 8—HSPC numbers in the blood of C57BL6xFVB mice treated with G-CSF and CoPP.
Effects of CoPP and exogenous G-CSF were compared. Mice were iterated with CoPP at the dose of 10 mg/kg (15 μmol/kg). Recombinant human G-CSF (rhG-CSF, Amgen) was used at the dose of 250 μg/kg. Compounds were injected i.p. daily for five days. Administration od CoPP mobilized higher number of HSPC (hematopoietic stem/progenitor cells) than administration of exogenous G-CSF (FIG. 8).

[5] = both strains, 10 mg/kg i.p., three times

| Structure (SMILES) | mobilization of cells from bone marrow in HO-1 KO mice (C3H and C57BL6xFVB mice [1]; HO-1 KO versus wild type mice, FIG. 4) | number of immature granulocytes (CD11b+/Ly6G low/Ly6C-/SCC mid phenotype) (C3H and C57BL6xFVB mice [1]; peripheral blood, flow cytometer) | increase in number of granulocytes (C3H and C57BL6xFVB mice [2]; C3H mice, 10 mg/kg i.p.) | increase in number of white blood cells (WBC) in blood compared to DMSO (C3H and C57BL6xFVB mice [2]; C3H mice, 10 mg/kg i.p.) | increase in number of granulocytes (C3H and C57BL6xFVB mice [2]; C57BL6xFVB mice, 10 mg/kg i.p.) | increase in number of white blood cells (WBC) in blood compared to DMSO (C3H and C57BL6xFVB mice [2]; C57BL6xFVB mice, 10 mg/kg i.p.) | hematocrit (HCT) (C3H and C57BL6xFVB mice [2]; [5]) | number of erythrocytes (RBC) (C3H and C57BL6xFVB mice [2]; [5]) | generation of singlet oxygen upon absorption of laser light [3] | solubility (solubility) | plasma level of chemokine IP-10 (CXCL-10) [4] | plasma level of chemokine MCP-1 (CCL2) [4] | plasma level of granulocyte colony stimulating factor (G-CSF) [4] | plasma level of interleukin 6 [4] | number of HSPC mobilized compared with exogenous G-CSF (C57BL6xFVB mice) | effect on the measured parameters (blood counts, granulocytes, cytokines) (C3H and C57BL6xFVB mice [2]; C3H mice, FIG. 1,3,5) | absorbed energy used for generation of singlet oxygen [3] |
| --- | --- | --- | --- | --- | --- | --- | --- | --- | --- | --- | --- | --- | --- | --- | --- | --- | --- |
| C=Cc1c(C)c2cc3[nH]c(cc4nc(cc5nc(cc1[nH]2)C(C)=C5CCC(=O)[O-])C(CCC(=O)[O-])=C4C)c(C)c3C=C.[Co+2] [CoPP, cobalt protoporphyrin IX] | works in a similar manner as in wild type mice | increase | 6.7 fold | 3 fold | 4 fold | 2 fold | no changes | no changes | does not generate singlet oxygen | soluble in alkaline aqueous solutions | increase | increase | increase | increase | higher number |  |  |
| C=Cc1c2[n-]c(c1C)/C=c1\[n-]/c(c(C)c1C=C)=C\c1[n-]c(c(CCC(=O)O)c1C)C=c1[n-]/c(c(C)c1CCC(=O)O)=C\2.[Sn+4] [SnPP, tin protoporphyrin IX, reference compound] |  |  |  |  |  |  |  |  |  |  |  |  |  |  |  | did not affect the majority of the measured parameters | 89% |
